Reference: US8206593B2, “Microfluidic chemical reaction circuits” (Fluidigm Corporation, priority 2004, dated 2012)

System: tumor-bearing mouse (M-MSV/M-MuLV rhabdomyosarcoma)
Experiment: microPET/microCT imaging of a tumor-bearing mouse injected with [18F]FDG
Format: in vivo
Settings: 272 microCi via tail vein; 1-h uptake and non-specific clearance; imaged 15 minutes; FDG produced in a microfluidic chip
Text: Mouse Model. The tumor model used was a strongly immunogenic, non-metastasizing retrovirally-induced rhabdomyosarcoma (M-MSV/M-MuLV) (Fletcher et al., 2002, Tetrahedron 58:4735). MSV is a replication-defective, acutely transforming retrovirus carried with helper activity provided by M-MuLV, which encodes the gag, pol, and env components that are necessary for cell infection and replication (Worz et al., 2001, Chemical Engineering Science 56:1029). Rhabdomyosarcomas develop at the intramuscular inoculation site after a short latency period (7-10 days) and regress over a period of 4-5 wk following the induction of a strong immune reaction in immunocompetent adult mice. These lesions were characterized by a mixture of virus-infected myocytes and a large infiltrate of lymphocytes, granulocytes, and macrophages. Both cellular and humoral immune responses induced are dependent on presentation by H-2 D^b alleles (Watts et al., 2003, Current Opinion in Chemical Biology 7:380). Rejection was mediated by CD8+ cytolytic T cells, which recognize peptides from the gag and env proteins of M-MuLV, and requires help from CD4+ T cells (Kobayashi et al., 2004, Science 304:1305; Chan et al., 2003, Nano Letters 3:199; Kawaguchi et al., 2005, Angewandte Chemie-International Edition 44:2413)
Mouse imaging. The tumor bearing mouse was injected with 272 microCi of FDG via tail vein. […]

## 2-deoxy-2-[^18F]fluoro-D-glucose [[^18F]FDG]
  Organs visible in microPET/microCT image: bladder, kidneys, heart, tumor and two lymph nodes
